Reference: patent US8389555B2, “Medicaments” (Motac Neuroscience Limited, priority 2007, dated 2013)
Where a name gives a salt, the structure may show the parent alone.

What was measured:
[1] = molecular target: T1, human dopamine D3 receptors (Homo sapiens, UniProt P35462); assay: Dopamine D3 receptor binding assay ([3H]spiperone, CHO cell membranes); settings: for Ki: human D3 receptors in CHO cells, 0.2 nM [3H]spiperone, mean ± SEM, read-out: Affinity Ki (D3); for Selectivity Ki(D2)/Ki(D3): ratio of Ki(D2) to Ki(D3)
T1 construct: expressed in transfected cells
T1 sequence (P35462 whole entry): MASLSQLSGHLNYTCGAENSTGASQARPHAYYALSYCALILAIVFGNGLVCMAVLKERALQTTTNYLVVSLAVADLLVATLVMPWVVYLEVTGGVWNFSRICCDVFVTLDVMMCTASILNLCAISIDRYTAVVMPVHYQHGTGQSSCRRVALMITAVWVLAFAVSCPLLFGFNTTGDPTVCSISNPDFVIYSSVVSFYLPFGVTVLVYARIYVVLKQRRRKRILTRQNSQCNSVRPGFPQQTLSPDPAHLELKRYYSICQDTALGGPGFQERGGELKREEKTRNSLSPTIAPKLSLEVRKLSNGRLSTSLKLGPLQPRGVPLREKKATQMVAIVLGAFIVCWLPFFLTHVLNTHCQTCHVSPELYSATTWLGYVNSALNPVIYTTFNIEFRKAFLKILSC
Procedure, shortened: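 CHO cell membranes expressing human D3 incubated with 0.2 nM [3H]spiperone in Tris-HCl pH 7.4 with 120 mM NaCl, 5 mM KCl, 2 mM CaCl2, 1 mM MgCl2 at 25° C for 120 min; nonspecific binding with 10 μM BP 897. Filtration read-out; seven concentrations in triplicate, Ki via Cheng-Prusoff.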

[2] = test system: 6-OHDA-lesioned rat model of Parkinson's disease; assay: Rotational behaviour in 6-OHDA-lesioned rat model of Parkinson's disease; type: in vivo; settings: for onset of action / short or long acting in vivo: in vivo model; for onset and persistence of activity: following oral or intra-peritoneal application, FIGS. 12, 16, 17
Protocol: Preparation of 6-OHDA-Lesioned Rat Model of Parkinson's Disease
Male Sprague-Dawley rats weighing 290-350 g were used. The rats were housed in a temperature-controlled room under a 12 hour light/dark cycle with free access to food and water. Thirty minutes prior to surgery, the animals were given the monoamine oxidase-B inhibitor pargyline (5 mg/kg i.p.;) and the noradrenaline uptake inhibitor desipramine (25 mg/kg i.p.). The rats were then placed under general anaesthesia (Flourothane) and immobilised in stereotaxic frame. Following reflection of cranial skin and periostium, a small bur-hole was made in the skull on the right side and a small puncture was made in the dura mater. Each animal then received a unilateral injection of 2.5 μl of the neurotoxin 6-hydroxydopamine hydrobromide (6-OHDA HBr; 5 mg/ml in sterile water with 0.1% ascorbic acid; i.e. 12.5 μg 6-OHDA per rat) into the right medial forebrain bundle at stereotaxic co-ordinates −2.8 mm from bregma, 2 mm lateral to the midline, and 9 mm below the skull. The 6-OHDA injection was made over a 5 minute period using a 5 μl Hamilton syringe. The rats were allowed to recover for 3 weeks following the lesion. Animals then received 0.05 mg/kg s.c. apomorphine to assess the extent of lesion. Animals displaying clear rotational behaviour directed contralateral to the lesioned side were selected for further studies.
Only lesioned animals were used in the study (as determined by apomorphine rotation).
Animals were administered a dose of the test compound at 1 mg/kg or 3 mg/kg (i.p.) and rotational behaviour was assessed for up to 4 hours following drug administration using automated rotometers. Alternatively, animals were administered a dose of the test compound at 10 mg/kg (p.o.) and rotational behaviour was assessed for up to 8 hours following drug administration using automated rotometers.
Each compound was administered to at least 5 rats.
Total net rotational activity. This parameter is calculated as the total number of 180° rotations (net contralateral) over the duration of the experiment.
Data were analysed independently for each novel compound with appropriate parametric statistics. All tests were carried out in Graphpad Prism Version 3.

[3] = molecular target: T2, recombinant human D2(short) dopamine receptor (Homo sapiens, UniProt P14416); assay: Dopamine D2S receptor binding assay ([3H]spiperone, CHO cell membranes); settings: human D2S receptors in CHO cells, 0.2 nM [3H]spiperone, mean ± SEM; read-out: Affinity Ki (D2)
T2 construct: expressed in transfected cells; host or cells: CHO-D2S cells (per Hayes et al. 1992)
T2 sequence (P14416 1-414 isoform P14416-2): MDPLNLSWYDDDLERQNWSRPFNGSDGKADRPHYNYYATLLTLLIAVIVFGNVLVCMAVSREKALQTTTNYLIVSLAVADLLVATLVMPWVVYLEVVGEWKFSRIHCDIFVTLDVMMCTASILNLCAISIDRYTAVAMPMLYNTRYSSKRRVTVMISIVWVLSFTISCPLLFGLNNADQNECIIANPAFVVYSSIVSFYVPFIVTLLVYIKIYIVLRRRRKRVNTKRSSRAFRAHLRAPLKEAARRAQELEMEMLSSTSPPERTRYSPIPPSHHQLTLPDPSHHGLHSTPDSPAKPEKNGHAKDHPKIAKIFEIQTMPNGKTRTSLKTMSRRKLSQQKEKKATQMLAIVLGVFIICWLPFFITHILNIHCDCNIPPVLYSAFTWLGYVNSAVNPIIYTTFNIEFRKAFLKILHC
Procedure, shortened: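 Membranes from CHO cells expressing human D2S receptor, incubated with 0.2 nM [3H]spiperone in Tris-HCl pH 7.4 with NaCl, KCl, CaCl2, MgCl2, 120 min at 25 °C; nonspecific binding with 10 μM BP 897. Filtration and scintillation counting; seven concentrations in triplicate, Ki from IC50 by Cheng-Prusoff, mean±SEM.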

Ki [1] [nM] | Selectivity Ki(D2)/Ki(D3) [1] | Ki [3] [nM] | melting point [°C] | SMILES | also measured
 |  |  | 114 | CCCN(CCCCNC(=O)C12CC3CC(CC(C3)C1)C2)C1CCc2ncsc2C1 (stereo not drawn) (as salt: salt) [Compound 65] | 
836 ± 211 | 19 | 16100 ± 8850 | 65 | CCCN(Cc1ccc(C(=O)NC2Cc3ccccc3C2)cc1)C1CCc2ncsc2C1 (stereo not drawn) [Compound 44, N-Indan-2-yl-4-{[propyl-(4,5,6,7-tetrahydrobenzothiazol-6-yl)amino]methyl}benzamide] | 
 |  |  | 126 | C#CCN(CCCCNC(=O)c1ccc2ccccc2c1)C1CCc2ncsc2C1 (stereo not drawn) (as salt: salt) [Compound 7, Naphthalene-2-carboxylic acid {4-[prop-2-ynyl-(4,5,6,7-tetrahydro-benzothiazol-6-yl)-amino]-butyl}-amide] | 
 |  |  | 75 | CCCN(CCCCC(=O)N1CCN(c2ccccc2)CC1)C1CCc2ncsc2C1 (stereo not drawn) (as salt: salt) [Compound 66, 1-(4-Phenylpiperazin-1-yl)-5-(propyl-(4,5,6,7-tetrahydrobenzothiazol-6-yl)amino)pentan-1-one] | 
 |  |  | 128 | C=CCN(CCCCNC(=O)c1ccc2ccccc2c1)C1CCc2ncsc2C1 (stereo not drawn) (as salt: salt) [Compound 6, Naphthalene-2-carboxylic acid {4-[allyl-(4,5,6,7-tetrahydro-benzothiazol-6-yl)-amino]-butyl}-amide] | 
4.5 ± 0.7 | 29 | 132 ± 40 |  | CCCN(CCN1CCN(c2ccccc2OC)CC1)C1CCc2ncsc2C1 (stereo not drawn) [Compound 34, {2-[4-(2-Methoxy-phenyl)-piperazin-1-yl]-ethyl}-propyl-(4,5,6,7-tetrahydro-benzothiazol-6-yl)-amine] | onset and persistence of activity [2]: rapid onset of activity and also have a sustained effect; action at increasing doses ([2]; i.p. at 1 and 3 mg/kg): substantially constant action; onset of action [2]: fast acting
631 ± 388 | 26 | 16700 ± 3380 | 85 | CCCN(Cc1ccc(C(=O)N(CCC)C2CCc3ncsc3C2)cc1)C1CCc2ncsc2C1 (stereo not drawn) [Compound 42, N-Propyl-4-{[propyl-(4,5,6,7-tetrahydrobenzothiazol-6-yl)amino]methyl}-N-(4,5,6,7-tetrahydrobenzothiazol-6-yl)benzamide] | 
1.54 ± 0.46 | 297 | 457 ± 228 |  | CCCN(CCCCC(=O)NC12CC3CC(CC(C3)C1)C2)C1CCc2ncsc2C1 (stereo not drawn) [Compound 68, N-Adamantanyl-5-(propyl-(4,5,6,7-tetrahydrobenzothiazol-6-yl)amino)pentanamide] | onset and persistence of activity [2]: sustained activity over a number of hours
 |  |  | 120 | CCCN(CCCCNC(=O)N1CCN(c2ccccc2)CC1)C1CCc2ncsc2C1 (stereo not drawn) (as salt: salt) [Compound 61, 4-Phenylpiperazine-1-carboxylic acid {4-[propyl-(4,5,6,7-tetrahydrobenzothiazol-6-yl)amino]butyl}amide] | 
3.95 ± 1.17 | 394 | 1560 ± 464 |  | CCCN(CCCCNC(=O)N1CCc2ccccc2C1)C1CCc2ncsc2C1 (stereo not drawn) [Compound 24, 3,4-Dihydro-1H-isoquinoline-2-carboxylic acid {4-[propyl-(4,5,6,7-tetrahydro-benzothiazol-6-yl)-amino]-butyl}-amide] | short or long acting in vivo [2]: short acting
 |  |  | 108 | CCN(CCN1CCN(c2ccccc2OC)CC1)C1CCc2ncsc2C1 (stereo not drawn) (as salt: salt) [Compound 28] | 

Further lines, the compound ahead of its results:

SMILES | Ki [1] [nM] | Selectivity Ki(D2)/Ki(D3) [1] | Ki [3] [nM] | melting point [°C] | also measured
CCCN(CCCCC(=O)Nc1ccc2ccccc2c1)C1CCc2ncsc2C1 (stereo not drawn) [Compound 9, 5-[Propyl-(4,5,6,7-tetrahydro-benzothiazol-6-yl)-amino]-pentanoic acid naphthalen-2-ylamide] | 0.55 ± 0.19 | 542 | 299 ± 38 |  | onset of action [2]: fast acting; short or long acting in vivo [2]: short acting
CCCN(CCCCNC(=O)N1CCc2cc(OC)c(OC)cc2C1)C1CCc2ncsc2C1 (stereo not drawn) [Compound 25, 6,7-Dimethoxy-3,4-dihydro-1H-isoquinoline-2-carboxylic acid {4-[propyl-(4,5,6,7-tetrahydro-benzothiazol-6-yl)-amino]-butyl}-amide] | 2.67 ± 1.32 | 2850 | 7610 ± 1810 |  | short or long acting in vivo [2]: short acting
CCCN(CCN1CCN(c2cccc(Cl)c2Cl)CC1)C1CCc2ncsc2C1 (stereo not drawn) [Compound 35, {2-[4-(2,3 -Dichloro-phenyl)-piperazin-1-yl]-ethyl}-propyl-(4,5,6,7-tetrahydro-benzothiazol-6-yl)-amine] | 21.7 ± 10.6 | 2 | 61.3 ± 19.1 | 103.5 | 
CCN(CCN(CC)C1CCc2ncsc2C1)C1CCc2ncsc2C1 (stereo not drawn) [Compound 33, N,N′-Diethyl-N,N′-bis-(4,5,6,7-tetrahydro-benzothiazol-6-yl)-ethane-1,2-diamine] | 22.7 ± 13.5 | 19 | 468 ± 13.5 |  | onset and persistence of activity [2]: rapid onset of activity and also have a sustained effect
CCCN(CCCCC(=O)NC1Cc2ccccc2C1)C1CCc2ncsc2C1 (stereo not drawn) [Compound 67, N-(2,3-dihydro-1H-inden-2-yl)-5-(propyl-(4,5,6,7-tetrahydrobenzothiazol-6-yl)amino)pentanamide] | 0.9 ± 0.05 | 1550 | 1390 ± 304 |  | short or long acting in vivo [2]: short acting
CCCN(Cc1ccc(C(=O)N2CCN(c3ccccc3)CC2)cc1)C1CCc2ncsc2C1 (stereo not drawn) [Compound 43, (4-Phenylpiperazin-1-yl)-(4-{[propyl-(4,5,6,7-tetrahydrobenzothiazol-6-yl)amino]methyl}phenyl)methanone] | 29.4 ± 7.5 | 49 | 1440 ± 273 | 70 | 
CCN(CCCN1CCN(c2ccccc2OC)CC1)C1CCc2ncsc2C1 (stereo not drawn) (as salt: salt) [Compound 29, Ethyl-{3-[4-(2-methoxy-phenyl)-piperazin-1-yl]-propyl}-(4,5,6,7-tetrahydro-benzothiazol-6-yl)-amine] |  |  |  | 64 | 
CCCN(CCCN1CCN(c2cccc(Cl)c2Cl)CC1)C1CCc2ncsc2C1 (stereo not drawn) (as salt: salt) [Compound 36, {3-[4-(2,3-Dichloro-phenyl)-piperazin-1-yl]-propyl}-propyl-(4,5,6,7-tetrahydro-benzothiazol-6-yl)-amine] |  |  |  | 110 | 
CCCN(CCCCNC(=O)N1Cc2ccccc2C1)C1CCc2ncsc2C1 (stereo not drawn) (as salt: salt) [Compound 27, 1,3-Dihydro-isoindole-2-carboxylic acid {4-[propyl-(4,5,6,7-tetrahydro-benzothiazol-6-yl)-amino]-butyl}-amide] |  |  |  | 118 | 
CCCN(CCCCNC(=O)C1Cc2ccccc2C1)C1CCc2ncsc2C1 (stereo not drawn) (as salt: salt) [Compound 26, Indane-2-carboxylic acid-{4-[propyl-(4,5,6,7-tetrahydrobenzothiazol-6-yl)amino]butyl}amide] |  |  |  | 119 | 
CCCN(CCCCC(=O)NC1Cc2ccccc2C1)C1CCc2ncsc2C1 (stereo not drawn) (as salt: salt) [Compound 67, N-(2,3-dihydro-1H-inden-2-yl)-5-(propyl-(4,5,6,7-tetrahydrobenzothiazol-6-yl)amino)pentanamide] |  |  |  | 60 | 
CCCN(CCCCNC(=O)N1CCc2cc(OC)c(OC)cc2C1)C1CCc2ncsc2C1 (stereo not drawn) (as salt: salt) [Compound 25, 6,7-Dimethoxy-3,4-dihydro-1H-isoquinoline-2-carboxylic acid {4-[propyl-(4,5,6,7-tetrahydro-benzothiazol-6-yl)-amino]-butyl}-amide] |  |  |  | 106 | 
CCCN(CCCCNC(=O)N1CC=C(c2ccccc2)CC1)C1CCc2ncsc2C1 (stereo not drawn) (as salt: salt) [Compound 62, 4-Phenyl-3,6-dihydro-2H-pyridine-1-carboxylic acid {4-[propyl-(4,5,6,7-tetrahydrobenzothiazol-6-yl)amino]butyl}amide] |  |  |  | 115 | 
